Converted amounts (≈) assume the structure as drawn.
Experiments:
[1] = test system: skin; details: topical, 0.1% versus 0.025%; cited from earlier work
[2] = test system: skin; details: topical, 0.1% versus 0.025%; cited from earlier work; remark: listed apart in the source
[3] = Solubility of retinoids in diethylhexyl 2,6-naphthalate (HallBrite TQ); assay type: physicochemical; details: organic solvent or mixture, read-out: solubility in diethylhexyl diester of 2,6-naphthalene-dicarboxylic acid
Protocol: Retinoids are lipophilic. […] For example, isotretinoin is soluble in the diethylhexyl diester of 2,6-naphthalene-dicarboxylic acid (diethylhexyl 2,6-naphthalate, HallBrite TQ, C. P. Hall) at approximately 6.7 mg/ml, and tretinoin is soluble in the same diester at approximately 5.6 mg/ml.

[4] = cited from earlier work
[5] = cited from earlier work; remark: listed apart in the source

Row | SMILES | therapeutic effectiveness [1] | degree of irritation [2] | solubility [3] [µg/mL] | solubility in chloroform ([4]; chloroform) | solubility in dimethyl sulfoxide ([4]; dimethyl sulfoxide) [µg/mL] | solubility in ether ([4]; ether) | solubility in methylene chloride ([4]; methylene chloride) | solubility in water ([4]; water) | stability of aqueous solutions ([5]; aqueous solutions) | stability of solutions in pure organic solvents ([5]; pure organic solvents, stored in the dark)
1 | CC1=C(/C=C/C(C)=C/C=C/C(C)=C\C(=O)O)C(C)(C)CCC1 [isotretinoin, 13-cis-retinoic acid] | more effective | more irritating | ~6700 (≈ 22.3 mM) | – | – | – | – | – | – | –
2 | CC1=C(/C=C/C(C)=C/C=C/C(C)=C/C(=O)O)C(C)(C)CCC1 [tretinoin, all-trans-retinoic acid] | – | – | ~5600 (≈ 18.6 mM) | slightly soluble | 40000 (≈ 133 mM) | sparingly soluble | soluble | practically insoluble | deteriorate quickly | stable
